Test results: US20240391954A1, “MC4R AGONIST PEPTIDES” (The Regents of the University of Michigan, priority 2021, published 2024)
Like-named read-outs stand apart in the source and are kept apart here. Positions of bridges follow the written chain, without caps; N, C: chain ends. Non-standard residues stand in square brackets, D forms with d. Residues, ends and D or L forms follow the SMILES beside them. dBip = N[C@H](Cc1ccc(-c2ccccc2)cc1)C(=O)O; dPhe(4-Br) = N[C@H](Cc1ccc(Br)cc1)C(=O)O; d(αMeF) = C[C@@](N)(Cc1ccccc1)C(=O)O; NMeR = CN[C@@H](CCCNC(=N)N)C(=O)O; Cit = NC(=O)NCCC[C@H](N)C(=O)O; Nle = CCCC[C@H](N)C(=O)O; Aib = CC(C)(N)C(=O)O

What was measured:
human MC3R = target: T1, human MC3R (Homo sapiens, UniProt P41968); test: split-luciferase cAMP sensor assay, agonist mode (measurement window 1), hMC3R; type: cell-based; conditions: agonist mode; for EC50: read-out: MC3R cAMP EC50; for Emax: read-out: MC3R cAMP % max activation
T1 construct: expressed in transfected cells; host or cells: HEK-293 cells stably expressing the GScAMP22F split-luciferase cAMP sensor (parent reporter line from Promega); MC3R clone generated in-house, G418 selection
T1 sequence (P41968 whole entry): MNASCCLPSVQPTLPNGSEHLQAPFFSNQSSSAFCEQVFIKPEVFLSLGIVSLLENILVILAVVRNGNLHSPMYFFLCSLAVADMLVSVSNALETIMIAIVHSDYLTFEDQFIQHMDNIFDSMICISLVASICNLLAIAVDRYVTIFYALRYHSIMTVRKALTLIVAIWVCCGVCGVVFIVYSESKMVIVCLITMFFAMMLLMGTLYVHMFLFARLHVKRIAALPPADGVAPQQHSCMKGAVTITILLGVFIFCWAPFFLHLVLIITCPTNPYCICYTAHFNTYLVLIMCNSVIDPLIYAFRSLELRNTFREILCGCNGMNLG
Protocol: (§1) The stable cell lines were grown and maintained in selection media consisting of Dulbecco's modified Eagle media (DMEM) with 4.5 g/l D-glucose, and 4 mM L-glutamine (Thermo Fisher Scientific, Waltham, MA), supplemented with 10% fetal bovine serum, 100 units/ml penicillin, 100 μg/ml streptomycin, 2.5 μg/ml amphotericin B, 200 μg/ml hygromycin B (for positive selection of the GScAMP22f luciferase reporter), and Geneticin™ (G418) 700 μg/ml (for MC3R or MC4R selection). Actual serum concentration during the assay is estimated to be about 1%. Cell line identity is routinely verified by qPCR and MC3R-and MC4R-specific oligonucleotides.
(§2) The assay for the determination of the cAMP response in live cells was described previously. […] Cells were seeded at a density of 20,000 cells per well using 384-well poly-D lysine-coated, clear bottom, and black-wall assay plates (Corning Inc. Corning, NJ). Cells were allowed to attach to the plates for 18 to 24 h after which growth media was removed and 20 μl of 4% D-luciferin (Promega) in CO2 independent, serum-free medium (Thermo Fisher Scientific) was added to each well. […] Intracellular cAMP levels were measured using an FDSS 7000EX Functional Drug Screening System (Hamamatsu Photonics, Hamamatsu, Japan) in the Center for Chemical Genomics at the Life Sciences Institute. This instrument allowed the in-line addition of test-peptides and receptor agonists while simultaneously acquiring the luminescence signal from live cells. […] A submaximal forskolin (20 μM) concentration was also included to serve as a normalization reference to account for cell number variations and differences in assay transducer efficiency between cell lines.
(§3) With this set up it was possible to evaluate the direct effect of the test-peptides on the MC3R and MC4R cell lines during measurement window 1, while the antagonist profile in the presence of EC90 α-MSH was determined on measurement window 2. […] EC50 or IC50 potency values were determined by non-linear regression by fitting the data to a sigmoid four-parameter variable slope model using the GraphPad Prism version 8.4 software package (San Diego CA).

human MC4R = target: T2, human MC4R (Homo sapiens, UniProt P32245); test: split-luciferase cAMP sensor assay, agonist mode (measurement window 1), hMC4R; type: cell-based; conditions: for MC4R cAMP % max activation / EC50 / Emax: agonist mode; for EC50: read-out: MC4R cAMP EC50; for Emax: read-out: MC4R cAMP % max activation
T2 construct: host or cells: HEK-293 cells stably expressing the GScAMP22F split-luciferase cAMP sensor and hMC4R, G418 selection
T2 sequence (P32245 whole entry): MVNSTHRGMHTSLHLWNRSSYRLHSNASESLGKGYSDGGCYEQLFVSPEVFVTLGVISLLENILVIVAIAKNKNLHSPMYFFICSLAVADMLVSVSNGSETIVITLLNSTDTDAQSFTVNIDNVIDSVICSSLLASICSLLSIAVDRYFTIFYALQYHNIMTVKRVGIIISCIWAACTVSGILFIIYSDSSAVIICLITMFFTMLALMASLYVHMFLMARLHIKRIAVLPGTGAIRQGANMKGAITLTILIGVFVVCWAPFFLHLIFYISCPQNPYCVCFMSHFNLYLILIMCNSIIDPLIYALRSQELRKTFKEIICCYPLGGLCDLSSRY
Protocol: as §1, §2, §3

SMILES	MC3R cAMP % max activation (human MC3R; hMC3R stable cell line)	EC50 (human MC3R; hMC3R stable cell line) [nM]	MC4R selectivity vs MC1R (human MC4R)	MC4R selectivity vs MC3R (human MC4R)	MC4R cAMP % max activation (human MC4R; hMC4R stable cell line)	EC50 (human MC4R; hMC4R stable cell line) [nM]	Emax (human MC3R; hMC3R stable cell line) [%]	Emax (human MC4R; hMC4R stable cell line) [%]	Emax (human MC3R; % maximal activation) [%]	Emax (human MC4R; % maximal activation) [%]
CC(=O)N[C@@H](CCCNC(=N)N)C(=O)N[C@H]1CSSC[C@@H](C(N)=O)NC(=O)[C@@H](Cc2c[nH]c3ccccc23)NC(=O)[C@H](CCCNC(=N)N)NC(=O)[C@@H](Cc2c[nH]c3ccccc23)NC(=O)[C@H](CCCNC(=N)N)NC(=O)[C@@H](C)NC1=O [CTX-1244, Arg-cyclo(Cys-D-Ala-Arg-D-Trp-Arg-D-Trp-Cys)] (Ac-RC[dA]R[dW]R[dW]C-NH2; disulfide 2-8 (inferred))	(10%)	13	0.26	0.11	(42%)	109				
CC(=O)N[C@@H](CCCNC(=N)N)C(=O)N[C@H]1CSSC[C@@H](C(N)=O)NC(=O)[C@@H](Cc2c[nH]c3ccccc23)NC(=O)[C@H](CCCNC(=N)N)NC(=O)[C@@H](Cc2ccc(-c3ccccc3)cc2)NC(=O)[C@H](CCCNC(=N)N)NC(=O)[C@@H](C)NC1=O [CTX-1243, Arg-cyclo(Cys-D-Ala-Arg-D-Bip-Arg-D-Trp-Cys)] (Ac-RC[dA]R[dBip]R[dW]C-NH2; disulfide 2-8 (inferred))			0.21	0.38			7.7	32		
CC(=O)N[C@@H](CCCNC(=N)N)C(=O)N[C@H]1CSSC[C@@H](C(N)=O)NC(=O)[C@H](Cc2c[nH]c3ccccc23)NC(=O)[C@H](CCCNC(=N)N)NC(=O)[C@H](Cc2ccccc2)NC(=O)[C@H](Cc2c[nH]cn2)NC(=O)[C@@H](C)NC1=O [CTX-1213, Arg-cyclo(Cys-D-Ala-His-Phe-Arg-Trp-Cys)]									97	104
CC(=O)N[C@@H](CCCNC(=N)N)C(=O)N[C@H]1CSSC[C@@H](C(N)=O)NC(=O)[C@@H](Cc2c[nH]c3ccccc23)NC(=O)[C@H](CCCNC(=N)N)NC(=O)[C@@](C)(Cc2ccccc2)NC(=O)[C@H](CCCNC(=N)N)NC(=O)[C@@H](C)NC1=O [CTX-1240, Arg-cyclo(Cys-D-Ala-Arg-aMe-D-Phe-Arg-D-Trp-Cys)] (Ac-RC[dA]R[d(αMeF)]R[dW]C-NH2; disulfide 2-8)	(27%)		0.46	0.41	(81%)					
CC(=O)N[C@@H](CCCNC(=N)N)C(=O)N[C@H]1CSSC[C@@H](C(N)=O)NC(=O)[C@@H](Cc2c[nH]c3ccccc23)NC(=O)[C@H](CCCNC(N)=O)NC(=O)[C@@H](Cc2ccc(Br)cc2)NC(=O)[C@H](CCCNC(=N)N)NC(=O)[C@@H](C)NC1=O [CTX-1253, Arg-cyclo(Cys-D-Ala-Arg-D-Phe(4-Br)-Cit-D-Trp-Cys)] (Ac-RC[dA]R[dPhe(4-Br)][Cit][dW]C-NH2; disulfide 2-8 (inferred))		4	0.57	0.53			9.2	58		
CC(=O)N[C@@H](CCCNC(=N)N)C(=O)N[C@H]1CSSC[C@@H](C(=O)N[C@@H](CCCNC(=N)N)C(=O)N[C@H](Cc2ccccc2)C(N)=O)NC(=O)[C@@H](Cc2c[nH]c3ccccc23)NC(=O)[C@H](CCCNC(=N)N)NC(=O)[C@@H](Cc2ccc(Br)cc2)NC(=O)[C@H](CCCNC(=N)N)NC(=O)[C@@H](C)NC1=O [CTX-1222, Arg-cyclo(Cys-D-Ala-Arg-D-Phe(4-Br)-Arg-D-Trp-Cys)-Arg-D-Phe] (Ac-RC[dA]R[dPhe(4-Br)]R[dW]CR[dF]-NH2; disulfide 2-8 (inferred))			0.1	0.33			38	79		
CC(=O)N[C@@H](CCCNC(=N)N)C(=O)N[C@H]1CSSC[C@@H](C(N)=O)NC(=O)[C@@H](Cc2c[nH]c3ccccc23)NC(=O)[C@H](CCCNC(=N)N)NC(=O)[C@@H](Cc2ccc(O)cc2)NC(=O)[C@H](CCCNC(=N)N)NC(=O)[C@@H](C)NC1=O [CTX-1237, Arg-cyclo(Cys-D-Ala-Arg-D-Tyr-Arg-D-Trp-Cys)] (Ac-RC[dA]R[dY]R[dW]C-NH2; disulfide 2-8 (inferred))			0.24	0.08			19	61		
COc1ccc(C[C@H]2NC(=O)[C@H](CCCNC(N)=O)NC(=O)C(C)(C)NC(=O)[C@@H](NC(=O)[C@H](CCCNC(=N)N)NC(C)=O)CSSC[C@@H](C(N)=O)NC(=O)[C@@H](Cc3c[nH]c4ccccc34)NC(=O)[C@H](CCCNC(=N)N)NC2=O)cc1 [CTX-1600, Arg-cyclo(Cys-Aib-Cit-D-Tyr(4-OMe)-Arg-D-Trp-Cys)] (Ac-RC[Aib][Cit][dY](Me)R[dW]C-NH2; disulfide 2-8)		> 10000	>70	>70				58		
CCCC[C@H](NC(=O)[C@H](CCCNC(=N)N)NC(C)=O)C(=O)N[C@H]1CSSC[C@@H](C(N)=O)NC(=O)[C@@H](Cc2c[nH]c3ccccc23)NC(=O)[C@H](CCCNC(=N)N)NC(=O)[C@@H](Cc2ccc(Br)cc2)NC(=O)[C@H](Cc2c[nH]cn2)NC1=O [CTX-1231, Arg-Nle-cyclo(Cys-His-D-Phe(4-Br)-Arg-D-Trp-Cys)] (Ac-R[Nle]CH[dPhe(4-Br)]R[dW]C-NH2; disulfide 3-8 (inferred))			0.19	3.04		2.3	59	64		
CC(=O)N[C@@H](CCCNC(=N)N)C(=O)N[C@H]1CSSC[C@@H](C(N)=O)NC(=O)[C@@H](C)NC(=O)[C@H](CCCNC(=N)N)NC(=O)[C@@H](Cc2ccc(Br)cc2)NC(=O)[C@H](CCCNC(=N)N)NC(=O)[C@@H](C)NC1=O [CTX-1260, Arg-cyclo(Cys-D-Ala-Arg-D-Phe(4-Br)-Arg-D-Ala-Cys)] (Ac-RC[dA]R[dPhe(4-Br)]R[dA]C-NH2; disulfide 2-8)			0.01	0.05			13	38		
CC(=O)N[C@@H](CCCNC(=N)N)C(=O)N[C@H]1CSSC[C@@H](C(N)=O)NC(=O)[C@@H](Cc2c[nH]c3ccccc23)NC(=O)[C@H](CCCNC(=N)N)N(C)C(=O)[C@@H](Cc2ccc(Br)cc2)NC(=O)[C@H](CCCNC(=N)N)NC(=O)[C@@H](C)NC1=O [CTX-1251, Arg-cyclo(Cys-D-Ala-Arg-D-Phe(4-Br)-NMe-Arg-D-Trp-Cys)] (Ac-RC[dA]R[dPhe(4-Br)][NMeR][dW]C-NH2; disulfide 2-8)			0.11	3.73			30	31		
